Reference: patent US9487489B2, “Halogen-substituted pyrazole derivatives as pest-control agents” (BAYER CROPSCIENCE AKTIENGESELLSCHAFT, priority 2013, dated 2016)

Tests used:
[1] = system: larvae of the red stomach worm (Haemonchus contortus); test: Haemonchus contortus test (HAEMCO); format: in vivo; conditions: application rate 20 ppm; after 5 days
Protocol: T8. Haemonchus contortus-test (HAEMCO)
Solvent: dimethyl sulphoxide
To produce a suitable preparation of active compound, 10 mg of active compound are mixed with 0.5 ml of dimethyl sulphoxide, and the concentrate is diluted with “Ringer solution” to the desired concentration.
Vessels containing the active compound preparation of the desired concentration are populated with about 40 larvae of the red stomach worm (Haemonchus contortus).
After 5 days, the kill in % is determined 100% means that all of the larvae have been killed; 0% means that none of the larvae have been killed.

[2] = system: adult cat fleas (Ctenocephalides felis); test: Ctenocephalides felis oral test (CTECFE); format: in vivo; conditions: application rate 100 ppm in citrated cattle blood; after 2 days
In short: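 About 20 unfed adult cat fleas fed through parafilm membrane on citrated cattle blood containing compound (DMSO stock diluted in blood to test concentration). Kill % scored after 2 days (100% = all fleas dead).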

[3] = system: bont tick nymphs (Amblyomma hebraeum); conditions: after 48 h
[4] = system: caterpillars of the armyworm (Spodoptera frugiperda); test: Spodoptera frugiperda spray test (SPODFR); format: in vivo; conditions: application rate 500 g/ha; maize leaf discs; after 7 days
In short: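 Maize leaf discs sprayed with compound in acetone/DMF with alkylaryl polyglycol ether emulsifier (1000 ppm) in water, dried, then infested with armyworm caterpillars. Mortality (%) scored after 7 days; 100% = all caterpillars killed, 0% = none killed.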

[5] = system: adult dog ticks (Rhipicephalus sanguineus); test: Rhipicephalus sanguineus in vitro contact test with adult brown dog ticks (T2); conditions: after 48 h
In short: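 Acetone solutions coated onto test tube walls and floor, giving 5 μg/cm^2 at 900 ppm. Five to ten adult ticks held per tube in the dark at room temperature for 48 h, then heated at 45-50° C for up to 5 min; efficacy is the percentage of dead or moribund ticks unable to climb away.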

[6] = system: adult cat fleas (Ctenocephalides felis); test: Ctenocephalides felis in vitro contact test with adult cat fleas (T1); conditions: after 48 h
In short: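 Test compound was dissolved in acetone p.a. (9 mg per 1 ml) and diluted as needed. 250 μl was spread evenly over the inner walls and floor of a 25 ml test tube by rotating on an orbital shaker for 2 h at 30 rpm. Once the solvent evaporated, 5-10 adult Ctenocephalides felis were added. Tubes were capped with a perforated plastic lid and kept horizontal at room temperature and ambient humidity.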

[7] = system: adult castor bean ticks (Ixodes ricinus); test: Ixodes ricinus in vitro contact test with adult castor bean ticks (T3); conditions: after 48 h
In short: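 Test compound was dissolved in acetone p.a. (9 mg in 1 ml) and diluted with acetone; 250 μl were spread evenly over the inner walls and floor of 25 ml test tubes by rocking on an orbital shaker (2 h, 30 rpm). Once the solvent evaporated, 5-10 adult Ixodes ricinus ticks were added, tubes closed with perforated lids and kept horizontally in darkness at 22° C. and 90% humidity. After 48 h, ticks were placed on a 45-50° C. hotplate for up to 5 min; those motionless or unable to climb away were scored dead or moribund.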

[8] = system: southern root-knot nematode (Meloidogyne incognita); test: Meloidogyne incognita test (MELGIN); format: in vivo; conditions: application rate 20 ppm; lettuce; after 14 days
Protocol: K. Meloidogyne incognita Test (MELGIN)
Solvent: 125.0 parts by weight of acetone
To prepare a suitable active compound preparation, 1 part by weight of active compound is mixed with the stated amount of solvent and the concentrate is diluted with water to the desired concentration.
Vessels are filled with sand, active compound solution, an egg/larvae suspension of the southern root-knot nematode (Meloidogyne incognita) and lettuce seeds. The lettuce seeds germinate and the plants develop. On the roots, galls are formed.
After 14 days, the nematicidal efficacy in % is determined by the formation of galls. 100% means that no galls have been found; 0% means that the number of galls on the treated plants corresponds to the untreated control.

Cn1nc(C(F)(F)C(F)(F)F)c(C(F)(F)F)c1-n1cc(-c2ccc(Cl)c(C(=O)NC3CC3)c2)cn1 [Ic-1, 2-Chloro-N-cyclopropyl-5-[2′-methyl-5′-(pentafluoroethyl)-4′-(trifluoromethyl)-2′H-1,3′-bipyrazol-4-yl]benzamide]
100%: efficacy (kill in %) [2] | efficacy (dead or moribund ticks) [3] | efficacy in % [4] | efficacy (dead or moribund ticks) ([5]; application rate 1 μg/cm^2) | efficacy (dead or moribund ticks) ([5]; application rate 5 μg/cm^2) | efficacy (dead or moribund fleas) ([6]; application rate 1 μg/cm^2) | efficacy (dead or moribund fleas) ([6]; application rate 5 μg/cm^2) | efficacy (dead or moribund ticks) ([7]; application rate 1 μg/cm^2) | efficacy (dead or moribund ticks) ([7]; application rate 5 μg/cm^2)
80%: efficacy (kill in %) [1]
90%: nematicidal efficacy in % (formation of galls) [8]
